Marks after values point to notes of the source that are not given here.
Legend:
[1] = system: renal fibrosis in rats (Doxorubicin); test: Reverting renal fibrosis induced by Doxorubicin in rats (Example 3); type: in vivo, rat; conditions: for GOT serum level (integrity of the hepatic parenchyma) / GPT serum level (integrity of the hepatic parenchyma) / OH—P Content (hydroxiproline) in kidneys / Grado 0 (null) fibrosis in kidneys, numbers of animals per group / Grado 1 (moderate) fibrosis in kidneys, numbers of animals per group / Grado 2 (intense) fibrosis in kidneys, numbers of animals per group / Grado 3 (very intense) fibrosis in kidneys, numbers of animals per group: 4 weeks; for GOT serum level (integrity of the hepatic parenchyma) / GPT serum level (integrity of the hepatic parenchyma) / OH—P Content (hydroxiproline) in kidneys: end of treatment; for OH—P Content (hydroxiproline) in kidneys: 20 fragments per group; for Grado 0 (null) fibrosis in kidneys, numbers of animals per group / Grado 1 (moderate) fibrosis in kidneys, numbers of animals per group / Grado 2 (intense) fibrosis in kidneys, numbers of animals per group / Grado 3 (very intense) fibrosis in kidneys, numbers of animals per group: N = 20; for Catalase (oxidative stress marker) / HPT (oxidative stress marker) / MDA (oxidative stress marker) / SODt (oxidative stress marker): renal tissue samples, end of the fourth week of treatment
Procedure: This experiment was conducted to evaluate the effect of the pharmaceutical composition containing GHRP-6 in reverting renal fibrosis in rats. In this case, the process was induced by sustained administration of the anti-neoplasic agent Doxorubicin (DX) at a 2.5 mg/kg dosage twice a week during 8 weeks. […] This point forward, DX administration was interrupted and the treatment with the pharmaceutical composition containing the GHRP-6 was started. The treatment was applied once daily at 100 and 400 μg/kg in a volume of 1 ml by the intraperitoneal route, during 4 weeks. The animals remaining were randomly distributed into three experimental groups of 20 rats each: (1) Control placebo group, receiving physiological saline solution, (2) Group receiving the GHRP-6 at a 100 μg/kg dosage, and (3) Group receiving the GHRP-6 at a 400 μg/kg dosage. When treatments concluded, the animals were sacrificed by anesthesia overdose and livers, kidneys, lungs and blood sera were collected. Tissue fragments were fixed in formalin neutral and processed by hematoxylin/eosin staining, or by Masson's trichromic staining, to evaluate the general damage and the severity of fibrotic indurations. Other fragments were stored at −70° C. until processing to determine the content of hydroxiproline by acid hydrolysis in 1N HCl, and also the levels of creatinine and oxidative stress markers. Biochemical determinations were carried out by calculating the total protein content by the Bradford's method.

[2] = system: pulmonary fibrosis in rats (Bleomycin); test: Control of pulmonary fibrosis induced by Bleomycin in rats (Example 4); type: in vivo, rat; conditions: 4 weeks; for Grade 0 pulmonary fibrosis (no evidences of fibrosis), animals per group / Grade 1 pulmonary fibrosis (predominantly vascular), animals per group / Grade 2 pulmonary fibrosis (additional peri-bronchial compromise), animals per group / Grade 3 pulmonary fibrosis (also interalveolar septum), animals per group: N = 15; for OH—P content (hydroxiproline) in lungs: end of treatment, 15 fragments per group
Procedure: In this case, the process as induced by sustained administration of the anti-neoplasic agent Bleomycin (Ble) at a 2.5 U/kg dosage twice a week during 4 weeks. […] This point forward, the administration of Ble was suspended and treatment with the pharmaceutical composition containing the GHRP-6 was started. The treatment was applied once daily, at 100 and 400 μg/kg in a 1 ml volume by intraperitoneal route during 4 weeks. […] When treatments concluded, the animals were sacrificed by anesthesia overdose and lungs and blood serum were collected. Tissue fragments were fixed in formalin neutral and processed by hematoxylin/eosin staining, or by Masson's trichromic staining, to evaluate the general damage and the severity of fibrotic indurations. Other fragments of lung tissues were stored at −70° C. until processing to determine the content of hydroxiproline by acid hydrolysis in 1N HCl, and also the […] levels of redox metabolism markers. Biochemical determinations were carried out by calculating the total protein content by the Bradford's method. Histological evaluation of the fibro-proliferative reaction in lungs includes the process of peri-vascular, peri-bronchial and septal fibrosis. The overall grade of pulmonary fibrosis was established according to the extension and intensity of the process in these three segments, to determine the percent of animals affected or unaffected at the end of the treatment with the GHRP-6. The numbers of animals in every group with fibrotic lungs according to the severity of fibrosis are:
Grade 0—No evidences of fibrosis or only thin and diffuse fiber or areolar material foci present, without respiratory compromise.
Grade 1—Fibrosis predominantly vascular in more than 75% of arterioles and capillaries.
Grade 2—Fibrosis predominantly vascular in more than 75% of arterioles and capillaries, with additional peri-bronchial compromise.
Grade 3—Fibrosis predominantly vascular in more than 75% of arterioles and capillaries, with additional peri-bronchial compromise. Fibrotic material is also detected in the interalveolar septum.

[3] = system: transgenic mice over-expressing one mutated form of the NOTCH 3 gene; test: Dementia of vascular origin: transgenic mice over-expressing mutated NOTCH 3 gene (CADASIL model, Example 6); type: in vivo, mouse; parameters: SODt (oxidative stress marker) / Cabalase (oxidative stress marker) / HPT (oxidative stress marker) / MDA (oxidative stress marker): unit not given here; conditions: 100 μg/kg i.p. twice a week, 16 weeks
Procedure: This experiment was conducted to evaluate the efficacy of pharmaceutical compositions indistinctly containing one of the peptides GHRP-6, GHRP-2, hexarelin or ghrelin on the central neurofunctional involution process in transgenic mice over-expressing one mutated form of the NOTCH 3 gene in blood vessel smooth muscle cells. These animals develop in terms of months an arteriopathy similar to that of the CASADIL disease, referred to the descriptive memory, and is occurring as one of the main causes of vascular dementia. In these animals, vascular lesions also include retinal-cerebral, cerebral and cochlear vasculopathies. The beta-amiloid material present in the brain and blood vessels, the deposit of osmophilic granular material in brain and meningeal artery walls and their reduced lumen are histopathologically relevant. White-pale zones, microinfarction and hemorrhagic foci zones appear in the brain and its main nervous trunks.
Eighteen- to twenty-months-old male mice were employed when evidenced the symptoms of the disease. The animals were randomly assigned to the following experimental treatment groups: • A—Placebo group receiving the physiological saline solution. • B—Group receiving GHRP-6 at a 100 μg/kg dosage. • C—Group receiving GHRP-2 at a 100 μg/kg dosage. • D—Group receiving Ghrelin at a 100 μg/kg dosage. • E—Group receiving Hexarelin at a 100 μg/kg dosage.
Treatments were applied twice a week during 16 weeks by intraperitoneal route. When treatments concluded, autopsy studies were conducted irrespective of the clinical improvement evidenced in a great number of animals treated. Brain tissue samples including meningeal tissues were collected for biochemical and histopathological determinations. The animals received anesthesia overdosed and subjected to intra-cardiac perfusion with cold physiological saline solution to wash off the blood present in the encephala. The encephala were extracted and one encephalon was frozen in dry-ice and the other was fixed in 4% para-formaldehyde neutral. Samples were cryo-sliced at 10 μm and slices were stained with hematoxylin/eosin, Congo Red, or incubated with an antibody specific for the beta-amiloid protein. Morphometric procedures were carried out by microscopic imaging capture by a camera connected to the microscope, and the images were analyzed with the DIGIPAT software.
Number of fibrillar deposits of beta-amiloid in blood vessels.
Number of sub-cortical infarctions.
Number of sub-cortical hemorrhages.
Brain concentration of myo-inositol as indicator of aging and brain metabolism deterioration (μmol/g of tissue).
Brain oxidative stress markers.

[4] = Dosage I: 100 μg/kg i.p. once daily
[5] = Dosage II: 400 μg/kg i.p. once daily
[6] = Dosis I: 100 μg/kg i.p. once daily
[7] = Dosis II: 400 μg/kg i.p. once daily

## GHRP-6
[1]; [4]
  GOT serum level (integrity of the hepatic parenchyma): 64.82 ± 23.71 IU/l
  GPT serum level (integrity of the hepatic parenchyma): 81.0 ± 10.25 IU/l
  OH—P Content (hydroxiproline) in kidneys: 46.15 ± 2.73 μg/g of total proteins
[1]; [5]
  GOT serum level (integrity of the hepatic parenchyma): 26.22 ± 4.1 IU/l
  GPT serum level (integrity of the hepatic parenchyma): 28.25 ± 5.66 IU/l
  OH—P Content (hydroxiproline) in kidneys: 8.66 ± 1.02 μg/g of total proteins
[1]; [6]
  Grado 0 (null) fibrosis in kidneys, numbers of animals per group: 6
  Grado 1 (moderate) fibrosis in kidneys, numbers of animals per group: 9
  Grado 2 (intense) fibrosis in kidneys, numbers of animals per group: 5
  Grado 3 (very intense) fibrosis in kidneys, numbers of animals per group: 0
[1]; [7]
  Grado 0 (null) fibrosis in kidneys, numbers of animals per group: 5
  Grado 1 (moderate) fibrosis in kidneys, numbers of animals per group: 15*
  Grado 2 (intense) fibrosis in kidneys, numbers of animals per group: 0
  Grado 3 (very intense) fibrosis in kidneys, numbers of animals per group: 0
[1]; FIGURE, 100 and 400 μg/kg vs. placebo, highest difference at 400 μg/kg
  Percent of animals with renal fibrosis compromise per group at the end of the treatment: dosage-dependent effect
[1]; Dosage I: 100 μg/kg
  Catalase (oxidative stress marker): 126.02 ± 12.23
  HPT (oxidative stress marker): 73.2 ± 6.92
  MDA (oxidative stress marker): 0.56 ± 2.23
  SODt (oxidative stress marker): 665.08 ± 28.42
[1]; Dosage II: 400 μg/kg
  Catalase (oxidative stress marker): 45.38 ± 8.27
  HPT (oxidative stress marker): 16.14 ± 3.67
  MDA (oxidative stress marker): 0.087 ± 0.02
  SODt (oxidative stress marker): 1287.64 ± 112.63
[2]; [4]
  Grade 0 pulmonary fibrosis (no evidences of fibrosis), animals per group: 3
  Grade 1 pulmonary fibrosis (predominantly vascular), animals per group: 10
  Grade 2 pulmonary fibrosis (additional peri-bronchial compromise), animals per group: 2
  Grade 3 pulmonary fibrosis (also interalveolar septum), animals per group: 0
  OH—P content (hydroxiproline) in lungs: 91.24 ± 16.84 μg/g of total proteins
[2]; [5]
  Grade 0 pulmonary fibrosis (no evidences of fibrosis), animals per group: 8
  Grade 1 pulmonary fibrosis (predominantly vascular), animals per group: 7
  Grade 2 pulmonary fibrosis (additional peri-bronchial compromise), animals per group: 0
  Grade 3 pulmonary fibrosis (also interalveolar septum), animals per group: 0
  OH—P content (hydroxiproline) in lungs: 12.75 ± 3.61 μg/g of total proteins
[2]; dosage II: 400 μg/kg i.p. once daily
  Animals classified as grade 0 (pulmonary fibrosis): > 50%
[3]; brain
  Cabalase (oxidative stress marker): 51.5 ± 16.01
  Cerebral Myo-inositol: 12.36 ± 5.64 μmol/g of tissue
  HPT (oxidative stress marker): 101.7 ± 22.09
  MDA (oxidative stress marker): 0.23 ± 0.05
  SODt (oxidative stress marker): 12327.31 ± 55.1
[3]; cerebral tissues
  No. of blood vessels positive to Congo Red: 16.31 ± 5.33
  No. of blood vessels positive to Nissl: 14.22 ± 8.15
  No. of hemorrhagic foci.: 19.05 ± 5.14
  No. of subcortical infarctions.: 26.79 ± 4.19

From patent US8722626B2, “Method for controlling fibrosis and other pathological deposits in tissues comprising administering a GHRP-6 composition” (Centro de Ingenieria Genetica y Biotecnologia, priority 2006, dated 2014)
